Patent US10322106B2, “Combinations of amisulpride and another anti-emetic for treating nausea and vomiting” (Acacia Pharma Limited, priority 2015, dated 2019)

How the values were obtained:
[1] = tested on: cisplatin-induced nausea and vomiting; experiment: Study 1: open label, ascending dose Phase II study of intravenous amisulpride in the prevention of cisplatin-induced nausea and vomiting; type: in vivo, human
Method: This study was designed to find the optimum dose range of IV amisulpride for the kit and method of the invention. This was an open label, ascending dose, Phase II study to determine the minimum effective dose of intravenous amisulpride in the prevention of cisplatin-induced nausea and vomiting. The number of patients evaluated was 51. Doses of amisulpride (racemic mixture) administered were 2.5, 7.5 and 20 mg. A 20 mg dose of amisulpride was also administered with a standard dose of IV ondansetron.

[2] = tested on: chemotherapy-induced nausea and vomiting (cisplatin or cyclophosphamide with epirubicin or doxorubicin); experiment: Study 2: randomised, double blind Phase II study of oral amisulpride for prevention of acute and delayed phase chemotherapy-induced nausea and vomiting; type: in vivo, human
Method: A randomised, double blind Phase II clinical study was conducted to characterise the dose-response of oral amisulpride for the prevention of acute and delayed phase nausea and vomiting in male and female patients. The patent population consisted of adult, chemotherapy-naïve cancer patients, receiving a first infusion of either cisplatin chemotherapy at a dose of 70 mg/m^2 or greater, or a combination of cyclophosphamide (500-1500 mg/m^2) and either epirubicin (60-100 mg/m^2) or doxorubicin (40-60 mg/m^2) for breast cancer. All patients received an intravenous injection of 20 mg of amisulpride (racemic mixture) and an intravenous injection of 8-16 mg ondansetron on the day of chemotherapy administration (i.e. day 1). The oral doses of amisulpride (racemic mixture) studied, along with placebo, were 10 mg, 20 mg or 40 mg each administered once per day on days 2-4 after chemotherapy. Specifically one capsule of amisulpride or its matching placebo, were taken as early as practically possible after waking of the patients each morning on days 2, 3 and 4. […] “Delayed phase response” means complete response (composite endpoint defined as no voting/retching and no use of rescue medication) in the period 24-120 hrs after chemo. There are other benefits of using a kit of the invention compared to three-drug regimen, such as reduced side-effects and better patient compliance.

[3] = tested on: cisplatin-induced emesis; details: ferrets; higher dosages; cited from earlier work
[4] = oral 10 mg AMI days 2-4 after IV OND + 20 mg AMI day 1, all subjects
[5] = oral 10 mg AMI days 2-4 after IV OND + 20 mg AMI day 1, patients with acute phase CR
[6] = oral 20 mg AMI days 2-4 after IV OND + 20 mg AMI day 1, all subjects
[7] = oral 20 mg AMI days 2-4 after IV OND + 20 mg AMI day 1, patients with acute phase CR
[8] = oral 40 mg AMI days 2-4 after IV OND + 20 mg AMI day 1, all subjects
[9] = oral 40 mg AMI days 2-4 after IV OND + 20 mg AMI day 1, patients with acute phase CR

CCN1CCCC1CNC(=O)c1cc(S(=O)(=O)CC)c(N)cc1OC (racemic) [amisulpride]
No emesis (vomiting/retching) ([1]; 2.5 mg IV amisulpride): 0/5
No significant nausea ([1]; 2.5 mg IV amisulpride): 1/5
No emesis (vomiting/retching) ([1]; 7.5 mg IV amisulpride): 0/5
No significant nausea ([1]; 7.5 mg IV amisulpride): 1/5
No emesis (vomiting/retching) ([1]; 20 mg IV amisulpride): 3/18
No significant nausea ([1]; 20 mg IV amisulpride): 12/18
Protection from nausea, dose-relationship ([1]; IV amisulpride from 2.5 mg to 20 mg): positive dose-relationship
Delayed phase response (complete response 24-120 hrs after chemo), in words ([2]; 10 mg oral amisulpride days 2-4, acute-phase responders): significantly better than placebo
CR, 0-120 h [2, 4]: 36%
CR, 0-120 h (number of subjects) [2, 4]: 21
CR, 24-120 h [2, 4]: 46%
CR, 24-120 h (number of subjects) [2, 4]: 27
Nausea, 0-120 h [2, 4]: 68%
Nausea, 0-120 h (number of subjects) [2, 4]: 40
Nausea, 24-120 h [2, 4]: 63%
Nausea, 24-120 h (number of subjects) [2, 4]: 37
Rescue medication use, 0-120 h [2, 4]: 54%
Rescue medication use, 0-120 h (number of subjects) [2, 4]: 32
Rescue medication use, 24-120 h [2, 4]: 41%
Rescue medication use, 24-120 h (number of subjects) [2, 4]: 26
Vomiting, 0-120 h [2, 4]: 59%
Vomiting, 0-120 h (number of subjects) [2, 4]: 35
Vomiting, 24-120 h [2, 4]: 46%
Vomiting, 24-120 h (number of subjects) [2, 4]: 27
CR, 24-120 h ([2]; oral 10 mg AMI days 2-4 after IV OND + 20 mg AMI day 1, all subjects, listed as AMI): 46%
CR, 24-120 h [2, 5]: 75%
CR, 24-120 h (number of subjects) [2, 5]: 21
Nausea, 24-120 h [2, 5]: 32%
Nausea, 24-120 h (number of subjects) [2, 5]: 9
Rescue medication use, 24-120 h [2, 5]: 14%
Rescue medication use, 24-120 h (number of subjects) [2, 5]: 4
Vomiting, 24-120 h [2, 5]: 21%
Vomiting, 24-120 h (number of subjects) [2, 5]: 6
CR, 0-120 h [2, 6]: 25%
CR, 0-120 h (number of subjects) [2, 6]: 17
CR, 24-120 h [2, 6]: 31%
CR, 24-120 h (number of subjects) [2, 6]: 21
Nausea, 0-120 h [2, 6]: 72%
Nausea, 0-120 h (number of subjects) [2, 6]: 48
Nausea, 24-120 h [2, 6]: 69%
Nausea, 24-120 h (number of subjects) [2, 6]: 46
Rescue medication use, 0-120 h [2, 6]: 55%
Rescue medication use, 0-120 h (number of subjects) [2, 6]: 37
Rescue medication use, 24-120 h [2, 6]: 54%
Rescue medication use, 24-120 h (number of subjects) [2, 6]: 36
Vomiting, 0-120 h [2, 6]: 70%
Vomiting, 0-120 h (number of subjects) [2, 6]: 47
Vomiting, 24-120 h [2, 6]: 55%
Vomiting, 24-120 h (number of subjects) [2, 6]: 37
CR, 24-120 h [2, 7]: 57%
CR, 24-120 h (number of subjects) [2, 7]: 17
Nausea, 24-120 h [2, 7]: 47%
Nausea, 24-120 h (number of subjects) [2, 7]: 14
Rescue medication use, 24-120 h [2, 7]: 23%
Rescue medication use, 24-120 h (number of subjects) [2, 7]: 7
Vomiting, 24-120 h [2, 7]: 43%
Vomiting, 24-120 h (number of subjects) [2, 7]: 13
CR, 0-120 h [2, 8]: 27%
CR, 0-120 h (number of subjects) [2, 8]: 17
CR, 24-120 h [2, 8]: 31%
CR, 24-120 h (number of subjects) [2, 8]: 20
Nausea, 0-120 h [2, 8]: 77%
Nausea, 0-120 h (number of subjects) [2, 8]: 49
Nausea, 24-120 h [2, 8]: 72%
Nausea, 24-120 h (number of subjects) [2, 8]: 46
Rescue medication use, 0-120 h [2, 8]: 58%
Rescue medication use, 0-120 h (number of subjects) [2, 8]: 37
Rescue medication use, 24-120 h [2, 8]: 56%
Rescue medication use, 24-120 h (number of subjects) [2, 8]: 36
Vomiting, 0-120 h [2, 8]: 66%
Vomiting, 0-120 h (number of subjects) [2, 8]: 42
Vomiting, 24-120 h [2, 8]: 58%
Vomiting, 24-120 h (number of subjects) [2, 8]: 37
CR, 24-120 h [2, 9]: 47%
CR, 24-120 h (number of subjects) [2, 9]: 17
Nausea, 24-120 h [2, 9]: 61%
Nausea, 24-120 h (number of subjects) [2, 9]: 22
Rescue medication use, 24-120 h [2, 9]: 36%
Rescue medication use, 24-120 h (number of subjects) [2, 9]: 13
Vomiting, 24-120 h [2, 9]: 47%
Vomiting, 24-120 h (number of subjects) [2, 9]: 17
inhibiting cisplatin-induced emesis, dose dependence in words [3]: less effective at higher dosages
